PubChem BioAssay AID256 (DTP/NCI, 2004)
Several values for one entry are separate records, joined by “and”; a condition that tells them apart may be missing. Equal entries are not always repeated. Toxic doses and inconclusive results are not listed.

Tested on: CD2F1 mice, L1210 leukemia ip, survival T/C
Assay: NCI In Vivo Anticancer Drug Screen. Data for tumor model L1210 Leukemia (intraperitoneal) in CD2F1 (CDF1) mice
Settings: endpoint: mean survival time, higher = longer survival
How it was run: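 In this screen, transplantable tumors were grown in mice given either the compound or its vehicle. Results were expressed as the treated measurement relative to the control measurement.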

[1] = dose: 200.0 mg/kg/injection, schedule: Q01DX001 (ip), vehicle: saline with Tween-80
[2] = dose: 100.0 mg/kg/injection, schedule: Q04DX003 (ip), vehicle: saline with Tween-80
[3] = dose: 200.0 mg/kg/injection, schedule: Q04DX003 (ip), vehicle: saline with Tween-80
[4] = dose: 400.0 mg/kg/injection, schedule: Q04DX003 (ip), vehicle: saline with Tween-80
[5] = dose: 100.0 mg/kg/injection, schedule: Q01DX001 (ip), vehicle: saline
[6] = dose: 200.0 mg/kg/injection, schedule: Q01DX001 (ip), vehicle: saline
[7] = dose: 400.0 mg/kg/injection, schedule: Q01DX001 (ip), vehicle: saline
[8] = dose: 100.0 mg/kg/injection, schedule: Q01DX001 (ip), vehicle: saline with Tween-80
[9] = dose: 100.0 mg/kg/injection, schedule: Q01DX009 (ip), vehicle: saline with Tween-80
[10] = dose: 12.5 mg/kg/injection, schedule: Q04DX003 (ip), vehicle: saline
[11] = dose: 25.0 mg/kg/injection, schedule: Q04DX003 (ip), vehicle: saline
[12] = dose: 75.0 mg/kg/injection, schedule: Q01DX001 (ip), vehicle: saline
[13] = dose: 100.0 mg/kg/injection, schedule: Q01DX009 (ip), vehicle: saline
[14] = dose: 200.0 mg/kg/injection, schedule: Q01DX009 (ip), vehicle: saline
[15] = dose: 400.0 mg/kg/injection, schedule: Q01DX009 (ip), vehicle: saline
[16] = dose: 200.0 mg/kg/injection, schedule: Q01DX009 (ip), vehicle: saline with Tween-80

CC1(C)N=C(N)N=C(N)N1c1ccc(CCCCc2cccc(S(=O)(=O)F)c2)c(Cl)c1
T/C (dose: 2.5 mg/kg/injection, schedule: Q01DX009 (ip), vehicle: saline with Tween-80): 98 % of control | T/C (dose: 5.0 mg/kg/injection, schedule: Q01DX009 (ip), vehicle: saline with Tween-80): 104 % of control | T/C (dose: 6.25 mg/kg/injection, schedule: Q04DX003 (ip), vehicle: saline sonified): 89 % of control | T/C (dose: 10.0 mg/kg/injection, schedule: Q01DX009 (ip), vehicle: saline with Tween-80): 103 % of control | T/C (dose: 12.5 mg/kg/injection, schedule: Q04DX003 (ip), vehicle: saline sonified): 93 % of control | T/C (dose: 20.0 mg/kg/injection, schedule: Q01DX009 (ip), vehicle: saline with Tween-80): 112 % of control | T/C (dose: 25.0 mg/kg/injection, schedule: Q04DX003 (ip), vehicle: saline sonified): 96 % of control

Cc1cc2c3ccccc3nc(C(F)(F)F)n2n1
T/C (dose: 100.0 mg/kg/injection, schedule: Q04DX003 (ip), vehicle: saline sonified): 96 % of control | T/C (dose: 200.0 mg/kg/injection, schedule: Q04DX003 (ip), vehicle: saline sonified): 100 % of control | T/C (dose: 400.0 mg/kg/injection, schedule: Q04DX003 (ip), vehicle: saline sonified): 100 % of control

O=c1ssc(=Nc2ccccc2)n1-c1ccccc1
T/C (dose: 12.5 mg/kg/injection, schedule: Q01DX009 (ip), vehicle: Klucel (hydroxypropylcellulose) (HPC)): 103 % of control | T/C (dose: 25.0 mg/kg/injection, schedule: Q01DX009 (ip), vehicle: Klucel (hydroxypropylcellulose) (HPC)): 93 % of control and 102 % of control | T/C (dose: 50.0 mg/kg/injection, schedule: Q01DX009 (ip), vehicle: Klucel (hydroxypropylcellulose) (HPC)): 98 % of control and 110 % of control | T/C (dose: 100.0 mg/kg/injection, schedule: Q01DX009 (ip), vehicle: Klucel (hydroxypropylcellulose) (HPC)): 103 % of control and 108 % of control | T/C (dose: 200.0 mg/kg/injection, schedule: Q01DX009 (ip), vehicle: Klucel (hydroxypropylcellulose) (HPC)): 98 % of control and 102 % of control | T/C (dose: 400.0 mg/kg/injection, schedule: Q01DX009 (ip), vehicle: Klucel (hydroxypropylcellulose) (HPC)): 117 % of control and 104 % of control

O=C(O)c1cnc(Cl)nc1Nc1ccccc1I
T/C [1]: 86 % of control

CCC1(CCC#N)CCC(N)=CC1=O (centres undefined)
T/C [2]: 104 % of control | T/C [3]: 95 % of control | T/C [4]: 101 % of control

CSc1nc(N)c2ncn(C3C=CC(O)CO3)c2n1 (centres undefined)
T/C (dose: 50.0 mg/kg/injection, schedule: Q01DX001 (ip), vehicle: saline): 106 % of control | T/C [5]: 106 % of control | T/C [6]: 100 % of control | T/C [7]: 116 % of control

Nc1cc(N)nc(N)n1
T/C [8]: 103 % of control | T/C [1]: 105 % of control

CCOC1(C(C)C)CCC(C)/C(=C\c2ccc([N+](=O)[O-])cc2)C1=O (centres undefined)
T/C [2]: 93 % of control | T/C [3]: 93 % of control | T/C [4]: 96 % of control

O=[N+]([O-])c1cc(F)ccc1O
T/C [9]: 96 % of control

CC1CN1P(=O)(N1CC1C)N1CC1C (centres undefined)
T/C (dose: 9.5 mg/kg/injection, schedule: Q01DX001 (ip), vehicle: saline): 101 % of control | T/C (dose: 19.0 mg/kg/injection, schedule: Q01DX001 (ip), vehicle: saline): 106 % of control | T/C (dose: 38.0 mg/kg/injection, schedule: Q01DX001 (ip), vehicle: saline): 117 % of control

CC([NH-])C([NH-])O.O=S(=O)(O)O.[Pt+2] (centres undefined)
T/C [10]: 166 % of control | T/C [11]: 103 % of control

COc1cc2c(c(OC)c1OC)-c1ccc(SC)c(=O)cc1[C@@H](NC1OCC(O)C(O)C1O)CC2 (some centres undefined)
T/C (dose: 6.0 mg/kg/injection, schedule: Q01DX009 (ip), vehicle: other): 102 % of control | T/C (dose: 12.0 mg/kg/injection, schedule: Q01DX009 (ip), vehicle: other): 120 % of control | T/C (dose: 12.5 mg/kg/injection, schedule: Q01DX009 (ip), vehicle: other): 106 % of control | T/C (dose: 25.0 mg/kg/injection, schedule: Q01DX009 (ip), vehicle: other): 119 % of control | T/C (dose: 100.0 mg/kg/injection, schedule: Q01DX009 (ip), vehicle: other): 88 % of control

O=NC1CC=CC1Cl (centres undefined)
T/C [5]: 96 % of control and 98 % of control | T/C [6]: 107 % of control and 102 % of control | T/C [7]: 101 % of control and 98 % of control

CC(CO)(CO)N(CCO)CCO
T/C [2]: 94 % of control | T/C [3]: 100 % of control | T/C [4]: 92 % of control

CCCCCCCCCCCCCCCCCC[N+]1(C)CCC[N+](C)(CCCCCCCCCCCCCCCCCC)CC1 (centres undefined)
T/C (dose: 100.0 mg/kg/injection, schedule: Q04DX002 (ip), vehicle: saline with Tween-80): 98 % of control and 100 % of control | T/C [2]: 86 % of control and 108 % of control | T/C (dose: 200.0 mg/kg/injection, schedule: Q04DX002 (ip), vehicle: saline with Tween-80): 92 % of control and 100 % of control | T/C [3]: 90 % of control and 104 % of control | T/C (dose: 400.0 mg/kg/injection, schedule: Q04DX002 (ip), vehicle: saline with Tween-80): 87 % of control and 92 % of control | T/C [4]: 88 % of control

C/C(Cl)=C/C(=O)O.[Ag]
T/C [12]: 93 % of control

CCOC(=O)C=C(c1ccc(OC)c(OC)c1)c1ccc(OC)c(OC)c1
T/C [5]: 108 % of control | T/C [6]: 100 % of control | T/C [7]: 102 % of control

Cc1cc[n+](CC(=O)CCc2ccc(C(=O)C[n+]3ccc(C)cc3)cc2)cc1
T/C (dose: 1.5 mg/kg/injection, schedule: Q04DX003 (ip), vehicle: saline): 100 % of control | T/C (dose: 3.0 mg/kg/injection, schedule: Q04DX003 (ip), vehicle: saline): 103 % of control | T/C (dose: 6.0 mg/kg/injection, schedule: Q04DX003 (ip), vehicle: saline): 95 % of control

CC(C)NS(=O)(=O)c1ccccc1
T/C [2]: 97 % of control | T/C [3]: 96 % of control | T/C [4]: 99 % of control

CCC(=O)c1ccc(OC(C)=O)c(OC(C)=O)c1
T/C [13]: 96 % of control | T/C [14]: 96 % of control | T/C [15]: 96 % of control

CCCCCCCCCCCCCCCC(=O)NCC[N+](C)(CC)CC
T/C [12]: 109 % of control

CC1(C)C2CCC1(C)C(OCCCN=C(N)CSS(=O)(=O)O)C2 (centres undefined)
T/C (dose: 9.4 mg/kg/injection, schedule: Q04DX002 (ip), vehicle: saline with Tween-80): 95 % of control | T/C (dose: 18.7 mg/kg/injection, schedule: Q04DX002 (ip), vehicle: saline with Tween-80): 109 % of control | T/C (dose: 37.5 mg/kg/injection, schedule: Q04DX002 (ip), vehicle: saline with Tween-80): 112 % of control

N=C(c1ccccc1)c1ccccc1
T/C [9]: 100 % of control | T/C [16]: 102 % of control | T/C (dose: 400.0 mg/kg/injection, schedule: Q01DX009 (ip), vehicle: saline with Tween-80): 102 % of control

CCN(CC)Cc1cc(Nc2nc(NC3CCC(N(C)C)CC3)c3ccccc3n2)ccc1OC (centres undefined)
T/C [10]: 103 % of control | T/C [11]: 97 % of control | T/C (dose: 50.0 mg/kg/injection, schedule: Q04DX003 (ip), vehicle: saline): 105 % of control

COC(=O)C(C(=O)c1ccccc1)c1ccccc1 (centres undefined)
T/C [8]: 94 % of control | T/C [1]: 97 % of control | T/C (dose: 400.0 mg/kg/injection, schedule: Q01DX001 (ip), vehicle: saline with Tween-80): 90 % of control

O=C(C=C(C(F)(F)F)C(F)(F)F)c1ccco1
T/C (dose: 12.5 mg/kg/injection, schedule: Q04DX003 (ip), vehicle: saline with Tween-80): 105 % of control | T/C (dose: 25.0 mg/kg/injection, schedule: Q04DX003 (ip), vehicle: saline with Tween-80): 102 % of control | T/C (dose: 50.0 mg/kg/injection, schedule: Q04DX003 (ip), vehicle: saline with Tween-80): 94 % of control

Cn1ccoc1=NC1CCCCC1
T/C (dose: 50.0 mg/kg/injection, schedule: Q01DX009 (ip), vehicle: saline with Tween-80): 94 % of control | T/C [9]: 94 % of control | T/C [16]: 91 % of control

ClCCCN1CCN(CCCCl)CC1
T/C (dose: 6.25 mg/kg/injection, schedule: Q01DX009 (ip), vehicle: distilled water + alcohol): 96 % of control | T/C (dose: 12.5 mg/kg/injection, schedule: Q01DX009 (ip), vehicle: distilled water + alcohol): 95 % of control | T/C (dose: 25.0 mg/kg/injection, schedule: Q01DX009 (ip), vehicle: distilled water + alcohol): 102 % of control | T/C (dose: 50.0 mg/kg/injection, schedule: Q01DX009 (ip), vehicle: distilled water + alcohol): 103 % of control | T/C (dose: 100.0 mg/kg/injection, schedule: Q01DX009 (ip), vehicle: distilled water + alcohol): 108 % of control

CCOC(=O)CCC(NC(=O)C(CSC(c1ccccc1)(c1ccccc1)c1ccccc1)NC(c1ccccc1)(c1ccccc1)c1ccccc1)C(=O)OCC (centres undefined)
T/C (dose: 25.0 mg/kg/injection, schedule: Q01DX009 (ip), vehicle: saline): 93 % of control | T/C (dose: 50.0 mg/kg/injection, schedule: Q01DX009 (ip), vehicle: saline): 100 % of control | T/C [13]: 96 % of control | T/C [14]: 96 % of control | T/C [15]: 96 % of control
